These results are taken from patent US10919852B2, “Immunomodulator compounds” (CHEMOCENTRYX, INC., priority 2017, dated 2021).

A value given as a limit tells only on which side of the number the result lay.

In this experiment the target is human PD-L1 / Human PD-1 (Homo sapiens (Human), UniProt Q9NZQ7). The experiment is described as follows: Enzyme-Linked Immunosorbent Assay (ELISA), PD-1/PD-L1 binding. As to conditions: plate-coated human PD-L1, biotinylated human PD-1. In a few lines:
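Compound dilutions (1:5 series) competed with 0.3 μg/mL biotin-labelled human PD-1 for PD-L1 immobilised at […], for 1 h at 37 °C. Read-out was A450 after streptavidin-HRP and a 20 min TMB reaction, stopped with 2 N H2SO4.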
Background: In an ELISA, binding on a coated surface is turned into a signal by an enzyme label.

human PD-L1 / Human PD-1, sequence (Q9NZQ7 19-239): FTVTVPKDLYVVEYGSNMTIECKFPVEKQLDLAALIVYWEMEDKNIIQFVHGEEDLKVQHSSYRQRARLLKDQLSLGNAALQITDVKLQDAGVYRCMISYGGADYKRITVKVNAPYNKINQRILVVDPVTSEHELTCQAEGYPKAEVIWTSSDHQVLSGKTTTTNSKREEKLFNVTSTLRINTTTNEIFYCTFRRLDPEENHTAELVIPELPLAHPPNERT

A word on the IC50: it is the point on the concentration scale where inhibition reaches its midpoint. Read a low IC50 as greater potency in that assay. `C[C@@](CO)(NCc1cc(Cl)c(O[C@H]2CCc3c(-c4cccc(OCCCN5CCC(O)CC5)c4Cl)cccc32)cc1OCc1cncc(C#N)c1)C(=O)O` gave an IC50 of under 5 nM. In turn, `N#Cc1cncc(COc2cc(O[C@H]3CCc4c(-c5cccc(OCCCN6CCC(O)CC6)c5Cl)cccc43)c(Cl)cc2CN[C@@H](CO)C(=O)O)c1` showed a half-maximal inhibitory concentration (IC50) of under 5 nM.

For `C[C@@H](O)[C@H](NCc1cc(Cl)c(O[C@H]2CCc3c(-c4cccc(OCCCN5CCC(O)CC5)c4Cl)cccc32)cc1OCc1cncc(C#N)c1)C(=O)O`, the 50% inhibitory concentration (IC50) is under 5 nM. Turning to `Cc1c(OCCCN2CCC(O)CC2)cccc1-c1cccc2c1CC[C@@H]2Oc1cc(OCc2cncc(C#N)c2)c(CN[C@@H]2CCCC[C@@H]2O)cc1Cl`, the 50% inhibitory concentration (IC50) is under 5 nM.

The compound `N#Cc1cncc(COc2cc(O[C@H]3CCc4c(-c5cccc(OCCCN6CC7(CC(F)C7)C6)c5Cl)cccc43)c(Cl)cc2CN2CC3(C2)NC(=O)NC3=O)c1` registered an IC50 of 5 to 500 nM. Turning to `N#Cc1cncc(COc2cc(O[C@H]3CCc4c(-c5cccc(OCCCN6CCC6)c5Cl)cccc43)c(Cl)cc2CNC[C@H]2CCC(=O)N2)c1`, the IC50 was under 5 nM. As for `N#Cc1cncc(COc2cc(O[C@H]3CCc4c(-c5cccc(OCCCN6CC7(CC(F)C7)C6)c5Cl)cccc43)c(Cl)cc2CNC[C@@H]2CCC(=O)N2)c1`, the figure is under 5 nM.

The compound `N#Cc1cncc(COc2cc(O[C@H]3CCc4c(-c5cccc(OCCCN6CC7(CC(F)C7)C6)c5Cl)cccc43)c(Cl)cc2CNC[C@H]2CCC(=O)N2)c1` displayed an IC50 of under 5 nM. Under `CN1CCC(COc2cccc(-c3cccc4c3CC[C@@H]4Oc3cc(OCc4cncc(C#N)c4)c(CN[C@@H]4CCCC[C@@H]4O)cc3Cl)c2Cl)C1` (some centres unmarked) stands under 5 nM.

`CN1CCC(COc2cccc(-c3cccc4c3CC[C@@H]4Oc3cc(OCc4cncc(C#N)c4)c(CNC[C@H]4CCC(=O)N4)cc3Cl)c2Cl)C1` (some centres unmarked) had an IC50 of under 5 nM. As for `N#Cc1cncc(COc2cc(O[C@H]3CCc4c(-c5cccc(OCCCN6CC7(C6)CC(F)(F)C7)c5Cl)cccc43)c(Cl)cc2CN[C@@H]2CCC[C@@H]2O)c1`, the figure is under 5 nM; as for `N#Cc1cncc(COc2cc(O[C@H]3CCc4c(-c5cccc(OCCCN6CC7(C6)CC(F)(F)C7)c5Cl)cccc43)c(Cl)cc2CN[C@@H]2CCC[C@H]2O)c1`, under 5 nM. Take `Cc1c(OCCCN2CC3(CCC3)C2)cccc1-c1cccc2c1CC[C@@H]2Oc1cc(OCc2cc(C#N)cc(C#N)c2)c(CNC[C@H]2CCC(=O)N2)cc1Cl`: the IC50 is 5 to 500 nM.

For `N#Cc1cncc(COc2cc(O[C@H]3CCc4c(-c5cccc(OCCCN6CC7(C6)CC(F)(F)C7)c5Cl)cccc43)c(Cl)cc2CN[C@H]2CCC[C@H]2O)c1`, the 50% inhibitory concentration (IC50) was under 5 nM.

Turning to `N#Cc1cncc(COc2cc(O[C@H]3CCc4c(-c5cccc(OCCCN6CC7(C6)CC(F)(F)C7)c5Cl)cccc43)c(Cl)cc2CN[C@H]2CCC[C@@H]2O)c1`, the half-inhibitory concentration (IC50) is under 5 nM. For the compound `N#Cc1cncc(COc2cc(O[C@H]3CCc4c(-c5cccc(OCCCN6CC7(C6)CC(F)(F)C7)c5Cl)cccc43)c(Cl)cc2CN2CC3(C2)NC(=O)NC3=O)c1`, the concentration for half-maximal inhibition (IC50) fell in the range of 5 to 500 nM.

`Cc1c(OCCCN2CC3(CCC3)C2)cccc1-c1cccc2c1CC[C@@H]2Oc1cc(OCc2cc(C#N)cc(C#N)c2)c(CNC[C@@H]2CCC(=O)N2)cc1Cl`: the concentration for half-maximal inhibition (IC50) is under 5 nM. As for `Cc1c(OCCCN2CCC(C)CC2)cccc1-c1cccc2c1CC[C@@H]2Oc1cc(OCc2cc(C#N)cc(C#N)c2)c(CNC[C@H]2CCC(=O)N2)cc1Cl`, the figure is under 5 nM; as for `Cc1c(OCCCN2CCC(C)CC2)cccc1-c1cccc2c1CC[C@@H]2Oc1cc(OCc2cc(C#N)cc(C#N)c2)c(CNC[C@@H]2CCC(=O)N2)cc1Cl`, under 5 nM. `Cc1c(OCCCN2CC3(CC(O)C3)C2)cccc1-c1cccc2c1CC[C@@H]2Oc1cc(OCc2cc(C#N)cc(C#N)c2)c(CNC[C@H]2CCC(=O)N2)cc1Cl` yielded a half-inhibitory concentration (IC50) of under 5 nM.

As to `Cc1c(OCCCN2CC3(C2)CC(F)(F)C3)cccc1-c1cccc2c1CC[C@@H]2Oc1cc(OCc2cc(C#N)cc(C#N)c2)c(CNC[C@H]2CCC(=O)N2)cc1Cl`, the IC50 lay within 5 to 500 nM. The compound `Cc1c(OCCCN2CCC(C)(F)CC2)cccc1-c1cccc2c1CC[C@@H]2Oc1cc(OCc2cncc(C#N)c2)c(CNC[C@H]2CCC(=O)N2)cc1Cl` registered an IC50 of 5 to 500 nM. As for `Cc1c(OCCCN2CCC(C)(F)CC2)cccc1-c1cccc2c1CC[C@@H]2Oc1cc(OCc2cncc(C#N)c2)c(CNC[C@@H]2CCC(=O)N2)cc1Cl`, the figure is under 5 nM; as for `N#Cc1cncc(COc2cc(O[C@H]3CCc4c(-c5cccc(OCCCN6CCC(F)CC6)c5Cl)cccc43)c(Cl)cc2CN[C@@H]2CC[C@H]2O)c1`, under 5 nM. As for `Cc1c(OCCCN2CCC(C)(F)CC2)cccc1-c1cccc2c1CC[C@@H]2Oc1cc(OCc2cncc(C#N)c2)c(CN[C@@H]2CCC(=O)NC2)cc1Cl`, the figure is under 5 nM; as for `Cc1c(OCCCN2CCC(C)(F)CC2)cccc1-c1cccc2c1CC[C@@H]2Oc1cc(OCc2cncc(C#N)c2)c(CN[C@H]2CCC(=O)NC2)cc1Cl`, 5 to 500 nM; as for `N#Cc1cncc(COc2cc(O[C@H]3CCc4c(-c5cccc(OCCCN6CC7(CC(F)C7)C6)c5Cl)cccc43)c(Cl)cc2CN[C@H]2CC[C@@H]2O)c1`, under 5 nM.

For `N#Cc1cncc(COc2cc(O[C@H]3CCc4c(-c5cccc(OCCCN6CC7(CC(F)C7)C6)c5Cl)cccc43)c(Cl)cc2CN[C@@H]2CC[C@H]2O)c1`, the IC50 was under 5 nM. For the compound `Cc1c(OCCCN2CC3(CC(F)C3)C2)cccc1-c1cccc2c1CC[C@@H]2Oc1cc(OCc2cc(C#N)cc(C#N)c2)c(CN[C@H]2CCC(=O)NC2)cc1Cl`, the half-maximal inhibitory concentration (IC50) was under 5 nM. In the case of `Cc1c(OCCCN2CCC(F)CC2)cccc1-c1cccc2c1CC[C@@H]2Oc1cc(OCc2cc(C#N)cc(C#N)c2)c(CN[C@@H]2CCC(=O)NC2)cc1Cl`, the half-maximal inhibitory concentration (IC50) was under 5 nM. `N#Cc1cncc(COc2cc(O[C@H]3CCc4c(-c5cccc(OCCCN6CC7(C6)CC(F)(F)C7)c5Cl)cccc43)c(Cl)cc2CN[C@H]2CC[C@@H]2O)c1` came in with a 50% inhibitory concentration (IC50) of 5 to 500 nM. On to `N#Cc1cncc(COc2cc(O[C@H]3CCc4c(-c5cccc(OCCCN6CC7(C6)CC(F)(F)C7)c5Cl)cccc43)c(Cl)cc2CN[C@@H]2CC[C@H]2O)c1`, for which the half-maximal inhibitory concentration (IC50) is under 5 nM. Under `Cc1c(OCCCN2[C@H](C)CCC[C@@H]2C)cccc1-c1cccc2c1CC[C@@H]2Oc1cc(OCc2cc(C#N)cc(C#N)c2)c(CNC[C@H]2CCC(=O)N2)cc1Cl` stands 5 to 500 nM; under `Cc1c(OCCCN2CC(F)(F)C2)cccc1-c1cccc2c1CC[C@@H]2Oc1cc(OCc2cc(C#N)cc(C#N)c2)c(CNC[C@H]2CCC(=O)N2)cc1Cl`, 5 to 500 nM.

Regarding `N#Cc1cc(C#N)cc(COc2cc(O[C@H]3CCc4c(-c5cccc(OCCCN6CCC(F)CC6)c5Cl)cccc43)c(Cl)cc2CN[C@H]2CCC(=O)NC2)c1`, the IC50 lay in the range of 5 to 500 nM. Compound `CC1(F)CCN(CCCOc2cccc(-c3cccc4c3CC[C@@H]4Oc3cc(OCc4cc(C#N)cc(C#N)c4)c(CN[C@H]4CCC(=O)NC4)cc3Cl)c2Cl)CC1` registered an IC50 of 5 to 500 nM. As for `Cc1c(OCCCN2CCCCC2)cccc1-c1cccc2c1CC[C@@H]2Oc1cc(OCc2cncc(C#N)c2)c(CNC[C@H]2CCC(=O)N2)cc1Cl`, the figure is under 5 nM; as for `Cc1c(OCCCN2CCCCC2)cccc1-c1cccc2c1CC[C@@H]2Oc1cc(OCc2cncc(C#N)c2)c(CNC[C@@H]2CCC(=O)N2)cc1Cl`, under 5 nM; as for `Cc1c(OCCCN2CCC(C)(O)CC2)cccc1-c1cccc2c1CC[C@@H]2Oc1cc(OCc2cc(C#N)cc(C#N)c2)c(CNC[C@@H]2CCC(=O)N2)cc1Cl`, under 5 nM. On to `N#Cc1cncc(COc2cc(O[C@H]3CCc4c(-c5cccc(OCCCN6CCC6)c5Cl)cccc43)c(Cl)cc2CNC[C@@H]2CCC(=O)N2)c1`, for which the half-inhibitory concentration (IC50) was under 5 nM. In turn, `CN1CCC(COc2cccc(-c3cccc4c3CC[C@@H]4Oc3cc(OCc4cncc(C#N)c4)c(CNC[C@@H]4CCC(=O)N4)cc3Cl)c2Cl)C1` (some centres unmarked) returned a 50% inhibitory concentration (IC50) of under 5 nM.

In turn, `Cc1c(OCCCN2CCCC[C@H]2C)cccc1-c1cccc2c1CC[C@@H]2Oc1cc(OCc2cc(C#N)cc(C#N)c2)c(CNC[C@H]2CCC(=O)N2)cc1Cl` came in with an IC50 of under 5 nM. `Cc1c(OCCCN2CCC(C)(C)CC2)cccc1-c1cccc2c1CC[C@@H]2Oc1cc(OCc2cc(C#N)cc(C#N)c2)c(CN[C@H]2CCC(=O)NC2)cc1Cl`: the IC50 lay within 5 to 500 nM.

Consider `CC1(F)CCN(CCCOc2cccc(-c3cccc4c3CC[C@@H]4Oc3cc(OCc4cncc(C#N)c4)c(CN4CC5(C4)NC(=O)NC5=O)cc3Cl)c2Cl)CC1`, for which the half-maximal inhibitory concentration (IC50) was in the range of 5 to 500 nM. As for `Cc1c(OCCCN2CCC(F)CC2)cccc1-c1cccc2c1CC[C@@H]2Oc1cc(OCc2cc(C#N)cc(C#N)c2)c(CN[C@H]2CCCCNC2=O)cc1Cl`, the figure is 5 to 500 nM; as for `CC1(F)CCN(CCCOc2cccc(-c3cccc4c3CC[C@@H]4Oc3cc(OCc4cncc(C#N)c4)c(CN4CCC5(C4)NC(=O)NC5=O)cc3Cl)c2Cl)CC1` (some centres unmarked), 5 to 500 nM. Compound `CC1(F)CCN(CCCOc2cccc(-c3cccc4c3CC[C@@H]4Oc3cc(OCc4cncc(C#N)c4)c(CN[C@@H]4CCC(=O)NC4)cc3Cl)c2Cl)CC1` displayed an IC50 of 5 to 500 nM. As to `Cc1c(OCCCN2CCCC[C@@H]2C)cccc1-c1cccc2c1CC[C@@H]2Oc1cc(OCc2cc(C#N)cc(C#N)c2)c(CNC[C@H]2CCC(=O)N2)cc1Cl`, the 50% inhibitory concentration (IC50) lay in the range of 5 to 500 nM. Under `CC1(F)CCN(CCCOc2cccc(-c3cccc4c3CC[C@@H]4Oc3cc(OCc4cncc(C#N)c4)c(CNC[C@H]4CCC(=O)N4)cc3Cl)c2Cl)CC1` stands 5 to 500 nM.

In turn, `Cc1c(OCCCN2CCCC[C@@H]2C)cccc1-c1cccc2c1CC[C@@H]2Oc1cc(OCc2cc(C#N)cc(C#N)c2)c(CNC[C@@H]2CCC(=O)N2)cc1Cl` yielded a concentration for half-maximal inhibition (IC50) of under 5 nM. Regarding `Cc1c(OCCCN2CCC2)cccc1-c1cccc2c1CC[C@@H]2Oc1cc(OCc2cc(C#N)cc(C#N)c2)c(CNC[C@H]2CCC(=O)N2)cc1Cl`, the IC50 is under 5 nM. Regarding `CC1(F)CCN(CCCOc2cccc(-c3cccc4c3CC[C@@H]4Oc3cc(OCc4cncc(C#N)c4)c(CNC[C@@H]4CCC(=O)N4)cc3Cl)c2Cl)CC1`, the IC50 was under 5 nM. `Cc1c(OCCCN2CCC(C)(F)CC2)cccc1-c1cccc2c1CC[C@@H]2Oc1cc(OCc2cc(C#N)cc(C#N)c2)c(CN2CC3(C2)NC(=O)NC3=O)cc1Cl` had a half-maximal inhibitory concentration (IC50) of 500 to 20000 nM.
